9 compounds from the supplement of paper PMC11281043 can be followed below.

Assay [1] concerns Danio rerio embryo/larva. Nature of the assay: max % larvae with any abnormality across tested concentrations; max tested concentration (log10 uM): 2; higher = more toxic; extreme values may be limits of the assay. Particulars: exposure: 6-8 hpf to 5 dpf, scored at 6 dpf.
The subject of assay [2] is Danio rerio embryo/larva. Nature of the assay: max % larvae unhatched across tested concentrations; max tested concentration (log10 uM): 2; higher = more toxic. The following applies: exposure: 6-8 hpf to 5 dpf, scored at 6 dpf.
Assay [3] concerns Danio rerio embryo/larva. Nature of the assay: BMC blood pooling; max tested concentration (log10 uM): 2; higher = less potent. Particulars: exposure: 6-8 hpf to 5 dpf, scored at 6 dpf. As to the method:
(§1)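 Zebrafish embryos (with chorion) were exposed from 6-8 hpf to each PFAS (8-point half-log series, top concentration up to 100 uM, 0.4% DMSO, sealed plates, 26 C; n = 6 embryos per concentration), rinsed at 5 dpf and scored at 6 dpf by two blinded observers for mortality, hatching and malformations. Endpoint scores are the % of living larvae affected (dead larvae excluded; […]). Curves were fitted with tcpl (cutoff 16%), and the BMC is the concentration at a benchmark response of 21.6%.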

In assay [4] the test system is Danio rerio embryo/larva. Nature of the assay: max % larvae dead across tested concentrations; max tested concentration (log10 uM): 2; higher = more toxic; extreme values may be limits of the assay. Particulars: exposure: 6-8 hpf to 5 dpf, scored at 6 dpf.
Assay [5] concerns Danio rerio embryo/larva. Kind of assay: BMC swim bladder non-inflation; higher = less potent. The following applies: exposure: 6-8 hpf to 5 dpf, scored at 6 dpf. The procedure:
as §1

Assay [6] has as its system Danio rerio embryo/larva. Kind of assay: BMC any abnormality; max tested concentration (log10 uM): 2; higher = less potent. Particulars: exposure: 6-8 hpf to 5 dpf, scored at 6 dpf. As to the method: as §1
In assay [7] the test system is Danio rerio embryo/larva. Nature of the assay: BMC edema; higher = less potent. Particulars: exposure: 6-8 hpf to 5 dpf, scored at 6 dpf. The procedure:
as §1

Assay [8] concerns Danio rerio embryo/larva. Kind of assay: BMC spinal defects; higher = less potent. Particulars: max tested concentration (log10 uM): 2; exposure: 6-8 hpf to 5 dpf, scored at 6 dpf. The procedure: as §1
Assay [9] concerns Danio rerio embryo/larva. Nature of the assay: BMC mortality; max tested concentration (log10 uM): 2; higher = less potent. The following applies: exposure: 6-8 hpf to 5 dpf, scored at 6 dpf. As to the method:
as §1

In assay [10] the test system is Danio rerio embryo/larva. Kind of assay: BMC abnormal position; higher = less potent. The following applies: exposure: 6-8 hpf to 5 dpf, scored at 6 dpf. As to the method:
as §1

The test system of assay [11] is Danio rerio embryo/larva. Kind of assay: max % larvae with any abnormality across tested concentrations; max tested concentration (log10 uM): 1.30103; higher = more toxic; extreme values may be limits of the assay. Particulars: exposure: 6-8 hpf to 5 dpf, scored at 6 dpf.
The test system of assay [12] is Danio rerio embryo/larva. Kind of assay: max % larvae dead across tested concentrations; max tested concentration (log10 uM): 1.30103; higher = more toxic; extreme values may be limits of the assay. Particulars: exposure: 6-8 hpf to 5 dpf, scored at 6 dpf.
For assay [13], the system named is Danio rerio embryo/larva. Nature of the assay: max % larvae unhatched across tested concentrations; max tested concentration (log10 uM): 1.30103; higher = more toxic. Particulars: exposure: 6-8 hpf to 5 dpf, scored at 6 dpf.
Assay [14] relates to Danio rerio embryo/larva. Nature of the assay: max % larvae with any abnormality across tested concentrations; max tested concentration (log10 uM): 1.60206; higher = more toxic; extreme values may be limits of the assay. Particulars: exposure: 6-8 hpf to 5 dpf, scored at 6 dpf.
For assay [15], the system named is Danio rerio embryo/larva. Kind of assay: BMC any abnormality; max tested concentration (log10 uM): 1.60206; higher = less potent. The following applies: exposure: 6-8 hpf to 5 dpf, scored at 6 dpf. The procedure: as §1
Assay [16] relates to Danio rerio embryo/larva. Nature of the assay: max % larvae dead across tested concentrations; max tested concentration (log10 uM): 1.60206; higher = more toxic; extreme values may be limits of the assay. The following applies: exposure: 6-8 hpf to 5 dpf, scored at 6 dpf.
Assay [17] has as its system Danio rerio embryo/larva. Nature of the assay: BMC mortality; max tested concentration (log10 uM): 1.60206; higher = less potent. Particulars: exposure: 6-8 hpf to 5 dpf, scored at 6 dpf. The procedure:
as §1

Assay [18] relates to Danio rerio embryo/larva. Nature of the assay: max % larvae unhatched across tested concentrations; max tested concentration (log10 uM): 1.60206; higher = more toxic. The following applies: exposure: 6-8 hpf to 5 dpf, scored at 6 dpf.
Assay [19] concerns Danio rerio embryo/larva. Kind of assay: max % larvae unhatched across tested concentrations; max tested concentration (log10 uM): 1.90309; higher = more toxic. Particulars: exposure: 6-8 hpf to 5 dpf, scored at 6 dpf.
Assay [20] deals with Danio rerio embryo/larva. Kind of assay: BMC blood pooling; max tested concentration (log10 uM): 1.90309; higher = less potent. Particulars: exposure: 6-8 hpf to 5 dpf, scored at 6 dpf. The procedure: as §1
For assay [21], the system named is Danio rerio embryo/larva. Nature of the assay: max % larvae with any abnormality across tested concentrations; max tested concentration (log10 uM): 1.90309; higher = more toxic; extreme values may be limits of the assay. Particulars: exposure: 6-8 hpf to 5 dpf, scored at 6 dpf.
Assay [22] concerns Danio rerio embryo/larva. Kind of assay: BMC craniofacial defects; higher = less potent. Particulars: exposure: 6-8 hpf to 5 dpf, scored at 6 dpf. The procedure:
as §1

Assay [23] has as its system Danio rerio embryo/larva. Kind of assay: BMC tail defects; max tested concentration (log10 uM): 1.90309; higher = less potent. Particulars: exposure: 6-8 hpf to 5 dpf, scored at 6 dpf. As to the method:
as §1

Assay [24] relates to Danio rerio embryo/larva. Nature of the assay: BMC any abnormality; max tested concentration (log10 uM): 1.90309; higher = less potent. The following applies: exposure: 6-8 hpf to 5 dpf, scored at 6 dpf. As to the method:
as §1

Assay [25] relates to Danio rerio embryo/larva. Nature of the assay: BMC tail defects; max tested concentration (log10 uM): 2; higher = less potent. The following applies: exposure: 6-8 hpf to 5 dpf, scored at 6 dpf. As to the method:
as §1

Where [26] appears, read: max tested concentration (log10 uM): 2.
Setting [27] is: max tested concentration (log10 uM): 1.90309.

± gives the standard deviation of the averaged measurements.

Consider `O=S(=O)(OCC(F)(F)F)C(F)(F)C(F)(F)C(F)(F)C(F)(F)F` [2,2,2-Trifluoroethyl perfluorobutanesulfonate], for which the max % larvae in [1] is 95.5%. For the same compound, the “max % larvae unhatched across tested concentrations” value in assay [2] worked out at 0%. The compound further registered a BMC blood pooling in [3] of 35.5 µM. In addition, the “max % larvae dead across tested concentrations” value in assay [4] was determined as 0%. The “BMC swim bladder non-inflation” value in [5] (setting [26]) came out at 77 µM. In assay [6], the BMC any abnormality is 29.4 µM. This compound yielded a BMC edema in assay [7] (setting [26]) of 32.7 µM.

`O=S(=O)(Cl)C(F)(F)C(F)(F)C(F)(F)C(F)(F)C(F)(F)C(F)(F)C(F)(F)C(F)(F)F` [Perfluoro-1-octanesulfonyl chloride] displayed a BMC spinal defects in assay [8] of 95.8 µM. In addition, the max % larvae in [1] was found to be 100%. Further, the “max % larvae unhatched across tested concentrations” value in [2] turned out to be 0%. Moreover, in assay [4], the “max % larvae dead across tested concentrations” value was found to be 83.3%. In [9], this compound displayed a BMC mortality of 77.9 µM. Moreover, the “BMC swim bladder non-inflation” value in [5] (setting [26]) turned out to be 10.4 µM. The BMC abnormal position in [10] (setting [26]) is 92 µM. Also, the BMC any abnormality in assay [6] is 10.4 µM. In [7] (setting [26]), the BMC edema turned out to be 29.4 µM.

With `O=C(O)C(F)(F)C(F)(F)C(F)(F)C(F)(F)C(F)(F)C(F)(F)C(F)(F)C(F)(F)C(F)(F)C(F)(F)C(F)(F)C(F)(F)C(F)(F)F` [Perfluorotetradecanoic acid], the max % larvae in assay [11] was found to be 12.5%. Also, the “max % larvae dead across tested concentrations” value in assay [12] was determined as 0%. Further, the “max % larvae unhatched across tested concentrations” value in assay [13] worked out at 0%.

`NCC(F)(F)C(F)(F)C(F)(F)C(F)(F)C(F)(F)C(F)(F)C(F)(F)C(F)(F)F` [1H,1H-Perfluorononylamine] returned a max % larvae in assay [14] of 100%. The BMC any abnormality in [15] is 27.2 µM. The “max % larvae dead across tested concentrations” value in [16] came out at 66.7%. Besides, in assay [17], the BMC mortality amounted to 29.9 µM. Besides, the “max % larvae unhatched across tested concentrations” value in assay [18] is 0%.

Turning to `O=S(=O)(O)C(F)(F)C(F)(F)C(F)(F)C(F)(F)C(F)(F)C(F)(F)C(F)(F)F` [Perfluoroheptanesulfonic acid], in [19], the “max % larvae unhatched across tested concentrations” value is 0%. Besides, the BMC blood pooling in assay [20] was found to be 61 µM. The compound also returned a max % larvae in assay [21] of 100%. Besides, the BMC craniofacial defects in assay [22] (setting [27]) was found to be 18.1 µM. Further, the BMC tail defects in [23] was 27 µM. Further, the “BMC swim bladder non-inflation” value in [5] (setting [27]) was found to be 15.6 µM. In addition, the BMC abnormal position in [10] (setting [27]) was found to be 17.7 µM. Moreover, the BMC any abnormality in assay [24] was 15.6 µM. In assay [7] (setting [27]), this compound gave a BMC edema of 18.5 µM.

In turn, `FC(F)(I)C(F)(F)C(F)(F)C(F)(F)C(F)(F)C(F)(F)I` [1,6-Diiodoperfluorohexane] registered a BMC spinal defects in assay [8] of 7.34 µM. The max % larvae in [1] was 100%. Also, the “max % larvae unhatched across tested concentrations” value in [2] is 0%. Further, the BMC blood pooling in assay [3] was 14.5 ± 16 µM. In addition, in assay [22] (setting [26]), the BMC craniofacial defects stood at 26.4 ± 3.9 µM. Also, the “BMC swim bladder non-inflation” value in [5] (setting [26]) turned out to be 6.49 ± 3.8 µM. Besides, the BMC abnormal position in assay [10] (setting [26]) was determined as 14.9 ± 17 µM. The same compound showed a BMC any abnormality in assay [6] of 5.18 ± 4.7 µM. The compound also came in with a BMC edema in assay [7] (setting [26]) of 6.97 ± 5.2 µM.

In turn, `O=S(=O)(O)C(F)(F)C(F)(F)C(F)(F)C(F)(F)C(F)(F)C(F)(F)C(F)(F)C(F)(F)F` [Potassium perfluorooctanesulfonate] registered a BMC spinal defects in [8] of 26 µM. This compound also gave a max % larvae in [1] of 100%. Further, the “max % larvae unhatched across tested concentrations” value in [2] was found to be 0%. The compound also showed a BMC blood pooling in assay [3] of 10.5 µM. Besides, the BMC craniofacial defects in assay [22] (setting [26]) was 8.25 µM. Besides, the “BMC swim bladder non-inflation” value in assay [5] (setting [26]) was 2.81 µM. In assay [10] (setting [26]), this compound came in with a BMC abnormal position of 3.99 µM. Moreover, the BMC tail defects in [25] is 27.8 µM. The compound further returned a BMC any abnormality in assay [6] of 2.77 µM. In addition, the BMC edema in assay [7] (setting [26]) worked out at 4.65 µM.

For `OCC(F)(F)C(F)(F)C(F)(F)C(F)(F)C(F)(F)C(F)(F)C(F)(F)C(F)(F)C(F)(F)C(F)(F)C(F)(F)F` [11:1 Fluorotelomer alcohol], in assay [11], the max % larvae came to 8.33%. Moreover, the “max % larvae unhatched across tested concentrations” value in assay [13] is 0%.

For the compound `O=C(O)C(F)(F)C(F)(F)C(F)(F)C(F)(F)C(F)(F)C(F)(F)C(F)(F)C(F)(F)C(F)(F)C(F)(F)C(F)(F)C(F)(F)F` [Perfluorotridecanoic acid], the max % larvae in [11] is 16.7%. In addition, the “max % larvae dead across tested concentrations” value in assay [12] turned out to be 0%. For the same compound, the “max % larvae unhatched across tested concentrations” value in assay [13] is 0%.
